Experimental data taken from patent US7812116B2, “Immunogenic peptides” (Rush University Medical Center, priority 2003, dated 2010).

Legend:
[1] = test system: dendritic cells; test: Phenotypic analysis of mature dendritic (mDC) and T2 antigen-presenting cells; format: cell-based, human; conditions: DCs from CD14+ monocytes, maturation factor during last three days of culture
Procedure: Immature DCs can be generated according to modified protocols of Romani N, et al., J Exp Med 180, pp. 83-89, 1994; and Bakker et al., Cancer Res 55, pp. 5330-5334, 1995. Briefly, fresh or frozen/thawed CD14+cells are cultured in RPMI 1640 medium (Gibco-Life Technologies, Gaithersburg, Md.) supplemented with 10% FCS, 1,000 U/ml GM-CSF and 1,000 U/ml IL-4. The cell cultures are fed with fresh medium and GM-CSF and IL-4 every other day and cell differentiation is monitored by light microscopy. On day 7, the cultures are supplemented with different combinations of DC maturation factors such as lipopolysaccharide (100 U/ml), TNF-α (10 ng/ml), or IFN-α (1,000 U/ml) plus TNF-α (10 ng/ml). After three days of incubation, mature DCs (mDC) are harvested and their phenotypes are evaluated by flow cytometry. The maturation factor(s) yielding optimal DC maturation are determined and used to generate mDCs for peptide pulsing in upcoming studies. In this example, immature DCs obtained by the culture of CD14+monocytes with GM-CSF (1,000 U/ml) and IL-4 (1,000 U/ml) are induced to undergo maturation by incubation with LPS (100 Units/ml), TNF-α (10 ng/ml) or TNF-α (10 ng/ml)+IFN-γ (50 ng/ml) during the final three days of the culture period. […] HLA-DR and no expression of CD3 or CD14 (data not shown). The highest up-regulation of the co-immunostimulatory (CD80 and CD86) and HLA-A2.1 MHC class I molecules is detected on DCs treated with TNF-α+IFN-γ (Table 5). […] The phenotype of the T2 cell line is evaluated to determine its potential for use as an alternative type of antigen presenting cell. […] The expression of CD80 is higher on T2 cells compared to mDCs.

[2] = molecular target: HLA-A2.1 (Homo sapiens, UniProt P04439, D140Y/D185E/D98H/E176V/E277Q/G131W/G231S/I119V/I121R/I166T/I218V/L300P/L318F/N151K/N90K/P208A/P217A/Q86G/Q94H/R138H/R169H/T345S); test: Peptide/HLA-A2.1 complex stability on T2 cells under Brefeldin A treatment; format: binding

Row | Substance | CD80 mean channel fluorescence (MCF) [1] | CD86 mean channel fluorescence (MCF) [1] | HLA-A2.1 mean channel fluorescence (MCF) [1] | HLA-A2.1 binding and stability in words [2]
1 | TNF-α | 107 | 96 | 475 | –
2 | LLFLTPMEV (listed as Homo sapiens) [SEQ ID NO: 3, CD19 9-mer fragment] | – | – | – | good and prolonged stable binding
3 | TLAYLIFCL (listed as Homo sapiens) [SEQ ID NO: 2, CD19 9-mer fragment] | – | – | – | good and prolonged stable binding
4 | lipopolysaccharide [LPS, reference compound] | 71 | 40 | 316 | –
5 | SLFLGILSV (listed as Homo sapiens) [SEQ ID NO: 6, CD20 9-mer fragment] | – | – | – | good and prolonged stable binding
